EP0091302A1, “Beta-lactam derivatives” (BEECHAM GROUP PLC, priority 1982, dated 1983)

Legend:
Assay in all cases: Antibacterial activity (MIC)
Format in all cases: cell-based
[1] = system: E. coli JT4; details: Escherichia coli
[2] = system: E. coli ESS; details: Escherichia coli
[3] = system: Ps. aeruginosa 10662; details: Pseudomonas aeruginosa
[4] = system: N catarrhalis 1502
[5] = system: Ps aeruginosa Dalgleish 10-^2
[6] = system: Ps. aeruginosa Dalgleish; details: Pseudomonas aeruginosa
[7] = Pseudomonas aeruginosa, Ps. aeruginosa 10^-2

| SMILES | MIC [1] [µg/mL] | MIC [2] [µg/mL] | MIC [3] [µg/mL] | MIC [4] [µg/mL] | MIC ([5]; Ps aeruginosa Dalgleish 10-^2) [µg/mL] | MIC [5, 7] [µg/mL] | MIC [6] [µg/mL] |
| --- | --- | --- | --- | --- | --- | --- | --- |
| CO[C@@]1(NC(=O)C(c2cc(N)c(O)c(O)c2)S(=O)(=O)O)C(=O)N2[C@@H](C(=O)O)C(C)(C)S[C@@H]21 (stereo partly drawn) [Example 1, Disodium 6,β-[R,S-2-(5-amino-3,4-dihydroxyphenyl)-2-sulphoacetamido]-6,α-methoxy penicillanate] | 25 | 5 | 50 | < 0.2 | 50 | – | – |
| CO[C@@]1(NC(=O)C(c2cc(O)c(O)c([N+](=O)[O-])c2)S(=O)(=O)O)C(=O)N2[C@@H](C(=O)O)C(C)(C)S[C@@H]21 (stereo partly drawn) [Example 2, Disodium 6,β-[R,S-2-(3,4-dihydroxy-5-nitrophenyl)-2-sulphoacetamido]-6,α-methoxypenicillanate] | 2.5 | 0.2 | 5 | < 0.02 | 1 | – | – |
| CO[C@@]1(NC(=O)[C@@H](c2cc(Cl)c(OC(C)=O)c(OC(C)=O)c2)S(=O)(=O)O)C(=O)N2[C@@H](C(=O)O)C(C)(C)S[C@@H]21 [Example 4v, Disodium 6,β-[R-2-(3-chloro-4,5-diacetoxyphenyl)-2-sulphoacetamido]-6,a-methoxypenicillanate] | 0.25 | 0.05 | 0.5 | < 0.01 | – | 0.25 | – |
| CO[C@@]1(NC(=O)[C@@H](c2cc(O)c(O)c(Cl)c2)S(=O)(=O)O)C(=O)N2[C@@H](C(=O)O)C(C)(C)S[C@@H]21 [Example 4vi, Disodium 6,B-[R-2-(3-chloro-4,5-dihydroxyphenyl)-2-sulphoacetamido]-6,a-methoxypenicillanate] | 0.5 | 0.05 | 2.5 | < 0.02 | – | 0.5 | – |
| CO[C@@]1(NC(=O)[C@@H](c2cc(OC(C)=O)c(OC(C)=O)cc2Cl)S(=O)(=O)O)C(=O)N2[C@@H](C(=O)O)C(C)(C)S[C@@H]21 [Example 5, Disodium 6,B-[R-2-(2-chloro-4,5-diacetoxyphenyl)-2-sulphoacetamido]-6,a-methoxypenicillanate] | 0.5 | 0.2 | 5 | < 0.02 | – | 1 | – |
| CO[C@@]1(NC(=O)[C@@H](c2cc(OC(C)=O)c(OC(C)=O)cc2C)S(=O)(=O)O)C(=O)N2[C@@H](C(=O)O)C(C)(C)S[C@@H]21 [Example 6vi, Disodium 6,β-[R-2-(4,5-diacetoxy-2-methylphenyl)-2-sulphoacetamido]-6,a-methoxypenicillanate] | 16 | 4 | 16 | – | – | – | 4 |
| CO[C@@]1(NC(=O)[C@H](c2cc(OC(C)=O)c(OC(C)=O)cc2C)S(=O)(=O)O)C(=O)N2[C@@H](C(=O)O)C(C)(C)S[C@@H]21 [Example 6vii, Disodium 6,β-[S-2-(4,5-diacetoxy-2-methylphenyl)-2-sulphoacetamido]-6,a-methoxypenicillanate] | 64 | 32 | 128 | – | – | – | 128 |
| CO[C@@]1(NC(=O)[C@@H](c2cc(C)c(OC(C)=O)c(OC(C)=O)c2)S(=O)(=O)O)C(=O)N2[C@@H](C(=O)O)C(C)(C)S[C@@H]21 [Example 7, Disodium 6,β-[R-2-(4,5-diacetoxy-3-methylphenyl)-2-sulphoacetamido]-6,a-methoxypenicillanate] | 8 | 0.5 | 16 | – | – | – | 8 |
| CO[C@@]1(NC(=O)[C@@H](c2cc(OC(C)=O)c(OC(C)=O)c(Cl)c2Cl)S(=O)(=O)O)C(=O)N2[C@@H](C(=O)O)C(C)(C)S[C@@H]21 [Example 8, Disodium 6,β-[R-2-(4,5-diacetoxy-2,3-dichlorophenyl)-2-sulphoacetamido]-6,a-methoxypenicillanate] | 1 | 0.25 | 2 | – | – | – | 2 |
